In PubChem BioAssay AID1918995 (Molecular Pharmacology Branch, DTP, NCI, 2023):
pIC50: −log10 of the molar value.

Tested on: 324938-238-R-J1-PDC complex spheroid growth, % test/control
Assay: Anticancer human tumor 324938-238-R-J1-PDC patient-derived bladder carcinoma cell line growth inhibition [AhR]
Details: for pIC50: curve of first compound; for viability, T/C: stronger effect = lower value
Method in brief: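 Complex tumor spheroids co-cultured with HUVEC and human MSC stroma; AhR antagonists tested in combination with standard-of-care and investigational agents. Top concentration at or near clinical Cmax (else 10 microM), half-log dilutions; growth expressed as percent test/control.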

[1] = second compound 0.1 µM, first compound 0.0316 µM
[2] = second compound 0.1 µM, first compound 0.1 µM
[3] = second compound 0.316 µM, first compound 0.0316 µM
[4] = second compound 0.316 µM, first compound 0.1 µM
[5] = second compound 1 µM, first compound 0.0316 µM
[6] = second compound 1 µM, first compound 0.1 µM
[7] = second compound 3.16 µM, first compound 0.0316 µM
[8] = second compound 3.16 µM, first compound 0.1 µM
[9] = second compound 10 µM, first compound 0.0316 µM
[10] = second compound 10 µM, first compound 0.1 µM
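Note: spheroids exposed to agents for seven days before viability read.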

## Cn1ncnc1C1c2n[nH]c(=O)c3cc(F)cc(c23)NC1c1ccc(F)cc1 (stereo not given) + Cc1ccccc1N=Nc1ccc(NC(=O)c2ccnn2C)c(C)c1
Second compound 0.1 µM
  pIC50: < 7.00
Second compound 0.316 µM
  pIC50: < 7.00
Second compound 1 µM
  pIC50: < 7.00
Second compound 3.16 µM
  pIC50: < 7.00
Second compound 10 µM
  pIC50: < 7.00
Second compound 0.1 µM, first compound 0.000316 µM
  viability, T/C: 103%
Second compound 0.1 µM, first compound 0.001 µM
  viability, T/C: 114%
Second compound 0.1 µM, first compound 0.00316 µM
  viability, T/C: 107%
Second compound 0.1 µM, first compound 0.01 µM
  viability, T/C: 83.6%
[1]
  viability, T/C: 81.1%
[2]
  viability, T/C: 63.8%
Second compound 0.316 µM, first compound 0.000316 µM
  viability, T/C: 98.4%
Second compound 0.316 µM, first compound 0.001 µM
  viability, T/C: 100%
Second compound 0.316 µM, first compound 0.00316 µM
  viability, T/C: 103%
Second compound 0.316 µM, first compound 0.01 µM
  viability, T/C: 74.4%
[3]
  viability, T/C: 76.1%
[4]
  viability, T/C: 69%
Second compound 1 µM, first compound 0.000316 µM
  viability, T/C: 92%
Second compound 1 µM, first compound 0.001 µM
  viability, T/C: 96.5%
Second compound 1 µM, first compound 0.00316 µM
  viability, T/C: 95.7%
Second compound 1 µM, first compound 0.01 µM
  viability, T/C: 66.5%
[5]
  viability, T/C: 85%
[6]
  viability, T/C: 62.4%
Second compound 3.16 µM, first compound 0.000316 µM
  viability, T/C: 83.9%
Second compound 3.16 µM, first compound 0.001 µM
  viability, T/C: 83.7%
Second compound 3.16 µM, first compound 0.00316 µM
  viability, T/C: 86.9%
Second compound 3.16 µM, first compound 0.01 µM
  viability, T/C: 73.6%
[7]
  viability, T/C: 78.3%
[8]
  viability, T/C: 61.1%
Second compound 10 µM, first compound 0.000316 µM
  viability, T/C: 78.2%
Second compound 10 µM, first compound 0.001 µM
  viability, T/C: 77.8%
Second compound 10 µM, first compound 0.00316 µM
  viability, T/C: 77.2%
Second compound 10 µM, first compound 0.01 µM
  viability, T/C: 73.5%
[9]
  viability, T/C: 69.2%
[10]
  viability, T/C: 66%

## NS(=O)(=O)OCC1CC(n2ccc3c(NC4CCc5ccccc54)ncnc32)CC1O (stereo not given) + Cc1ccccc1N=Nc1ccc(NC(=O)c2ccnn2C)c(C)c1
Second compound 0.1 µM
  pIC50: 5.87
Second compound 0.316 µM
  pIC50: 5.97
Second compound 1 µM
  pIC50: 5.98
Second compound 3.16 µM
  pIC50: 6.06
Second compound 10 µM
  pIC50: 6.03
[1]
  viability, T/C: 85.5%
[2]
  viability, T/C: 103%
Second compound 0.1 µM, first compound 0.316 µM
  viability, T/C: 79.7%
Second compound 0.1 µM, first compound 1 µM
  viability, T/C: 59%
Second compound 0.1 µM, first compound 3.16 µM
  viability, T/C: 28.9%
Second compound 0.1 µM, first compound 10 µM
  viability, T/C: 27.7%
[3]
  viability, T/C: 93.2%
[4]
  viability, T/C: 88.8%
Second compound 0.316 µM, first compound 0.316 µM
  viability, T/C: 76.1%
Second compound 0.316 µM, first compound 1 µM
  viability, T/C: 55.4%
Second compound 0.316 µM, first compound 3.16 µM
  viability, T/C: 23.4%
Second compound 0.316 µM, first compound 10 µM
  viability, T/C: 30.1%
[5]
  viability, T/C: 88%
[6]
  viability, T/C: 83.4%
Second compound 1 µM, first compound 0.316 µM
  viability, T/C: 82.7%
Second compound 1 µM, first compound 1 µM
  viability, T/C: 50.9%
Second compound 1 µM, first compound 3.16 µM
  viability, T/C: 26.7%
Second compound 1 µM, first compound 10 µM
  viability, T/C: 35.2%
[7]
  viability, T/C: 79.8%
[8]
  viability, T/C: 72.9%
Second compound 3.16 µM, first compound 0.316 µM
  viability, T/C: 73.7%
Second compound 3.16 µM, first compound 1 µM
  viability, T/C: 46.7%
Second compound 3.16 µM, first compound 3.16 µM
  viability, T/C: 22.9%
Second compound 3.16 µM, first compound 10 µM
  viability, T/C: 32%
[9]
  viability, T/C: 72.7%
[10]
  viability, T/C: 81%
Second compound 10 µM, first compound 0.316 µM
  viability, T/C: 74.1%
Second compound 10 µM, first compound 1 µM
  viability, T/C: 48.4%
Second compound 10 µM, first compound 3.16 µM
  viability, T/C: 35.5%
Second compound 10 µM, first compound 10 µM
  viability, T/C: 35.8%

## Nc1ncn(C2CC(O)C(CO)S2)c(=O)n1 (stereo not given) + Cc1ccccc1N=Nc1ccc(NC(=O)c2ccnn2C)c(C)c1
Second compound 0.1 µM
  pIC50: < 6.52
Second compound 0.316 µM
  pIC50: < 6.52
Second compound 1 µM
  pIC50: < 6.52
Second compound 3.16 µM
  pIC50: 6.54
Second compound 10 µM
  pIC50: 6.53
Second compound 0.1 µM, first compound 0.000949 µM
  viability, T/C: 83.2%
Second compound 0.1 µM, first compound 0.003 µM
  viability, T/C: 95.4%
Second compound 0.1 µM, first compound 0.00949 µM
  viability, T/C: 91.7%
Second compound 0.1 µM, first compound 0.03 µM
  viability, T/C: 78.5%
Second compound 0.1 µM, first compound 0.0949 µM
  viability, T/C: 72.6%
Second compound 0.1 µM, first compound 0.3 µM
  viability, T/C: 53.4%
Second compound 0.316 µM, first compound 0.000949 µM
  viability, T/C: 81.7%
Second compound 0.316 µM, first compound 0.003 µM
  viability, T/C: 90.2%
Second compound 0.316 µM, first compound 0.00949 µM
  viability, T/C: 98.3%
Second compound 0.316 µM, first compound 0.03 µM
  viability, T/C: 82.6%
Second compound 0.316 µM, first compound 0.0949 µM
  viability, T/C: 71.8%
Second compound 0.316 µM, first compound 0.3 µM
  viability, T/C: 54.3%
Second compound 1 µM, first compound 0.000949 µM
  viability, T/C: 97.1%
Second compound 1 µM, first compound 0.003 µM
  viability, T/C: 87.4%
Second compound 1 µM, first compound 0.00949 µM
  viability, T/C: 78.7%
Second compound 1 µM, first compound 0.03 µM
  viability, T/C: 78.7%
Second compound 1 µM, first compound 0.0949 µM
  viability, T/C: 65%
Second compound 1 µM, first compound 0.3 µM
  viability, T/C: 55.4%
Second compound 3.16 µM, first compound 0.000949 µM
  viability, T/C: 83.7%
Second compound 3.16 µM, first compound 0.003 µM
  viability, T/C: 85.4%
Second compound 3.16 µM, first compound 0.00949 µM
  viability, T/C: 66%
Second compound 3.16 µM, first compound 0.03 µM
  viability, T/C: 70.4%
Second compound 3.16 µM, first compound 0.0949 µM
  viability, T/C: 60.9%
Second compound 3.16 µM, first compound 0.3 µM
  viability, T/C: 48.5%
Second compound 10 µM, first compound 0.000949 µM
  viability, T/C: 81.6%
Second compound 10 µM, first compound 0.003 µM
  viability, T/C: 71.4%
Second compound 10 µM, first compound 0.00949 µM
  viability, T/C: 70.5%
Second compound 10 µM, first compound 0.03 µM
  viability, T/C: 68.8%
Second compound 10 µM, first compound 0.0949 µM
  viability, T/C: 65.8%
Second compound 10 µM, first compound 0.3 µM
  viability, T/C: 48.7%
